Experimental data published in article PMC4108065, “Inflammation and pancreatic cancer: molecular and functional interactions between S100A8, S100A9, NT-S100A8 and TGFβ1” (Cell Communication and Signaling : CCS, 2014).

Experiments:
BxPC3 N-Cadherin = assay: N-cadherin immunocytochemistry, BxPC3; format: cell-based, human; conditions: vs untreated cells
Description: In order to investigate immunocytochemical reactions, control and stimulated cells were formalin-fixed and paraffin embedded before obtaining […] sections from each cell block. All immunocytochemical staining was performed automatically (Bondt—maX, Menarini, Florence, Italy) with primary antibodies: E-cadherin (DakoCytomation, Glostrup, Denmark) (1:200), N-cadherin (DakoCytomation) (1:100), Twist1 (Novocastra, Newcastle-upon-Tyne, UK)(1:600). Sections were then lightly counterstained with hematoxylin. E-cadherin and N-cadherin immunoreactions were defined as immunoreactions detectable in the membrane while Twist was defined as a positive nuclear staining. At least three independent sets of experiments were performed in each experimental condition.

MiaPaCa2 [Ca2+]i = assay: Intracellular calcium, fluo-4 epifluorescence, MiaPaCa2; format: cell-based, human; conditions: for [Ca2+]i variation per minute per cell: MiaPaCa2, 200 to 480 second interval, vs control cells, One-Way ANOVA, Bonferroni; for effect on the [Ca2+]i decrement induced by TGFβ1: MiaPaCa2, combined with 0.02 ng/ml TGFβ1, 200 to 480 second interval
Description: BxPC3 and MiaPaCa2 cells, seeded (80 × 10^3 cells) on coverslips that had been inserted within each well of six well culture plates, were kept in their respective complete media for 24 hours. Coverslips were then incubated for 10 min at 37°C with 3 μM fluo-4 AM (Invitrogen S.R.L.) in an imaging buffer containing 137 mM NaCl, 5 mM KCl, 1.2 mM MgCl2, 0.44 mM KH2PO4, 4.2 mM NaHCO3, 5 mM glucose, and 20 mM HEPES pH 7.4. The cells were carefully washed with the imaging buffer after its removal. Calcium oscillations were then analyzed by means of an inverted epifluorescence microscope equipped with a top stage incubator (Tokai Hit INU-F1, Tokai Hit, Shizuoka-Ken, Japan) in order to keep cells in the optimal culturing environment. As an illumination source, we used a mercury arc discharge lamp and selected excitation and emission wavelengths with an FITC filter cube (EX 465–495 DM505 EM 515–555 nm). Use was made of an 60X1.45NA objective (Nikon Instruments S.P.A., Firenze, Italy) and, in order to minimize phototoxicity and photobleaching, a back-thinned electron multiplied CCD camera C9100-13 Imagem (Hamamatsu Photonics Italia S.R.L., Milano, Italy). After the first minute, required to achieve optimal culture conditions, intracellular fluorescence was continuously monitored (3 frames/sec) for 12 min. In all experiments, […], the cells were maintained in imaging buffer for the first 2 minutes, after which they were stimulated with 10 nM S100A8, 10 nM S100A9 and 50 nM NT-S100A8, alone or in combination with 0.02 ng/ml TGFβ1. For all stimuli, additions were made directly to the microscope chamber without interrupting the recording. The fluorescence signal was quantified by measuring the mean pixel value of a manually selected cellular area for each frame of the image stack using the HCimage system (Hamamatsu Photonics Italia S.R.L.). For all the experimental conditions, at least 3 independents sets of experiments were performed.

Panc1 = assay: XTT cell viability assay, Panc1; format: cell-based, human; conditions: 48 hours, TGFβ1 0.02 ng/ml, NT-S100A8 50 nM, S100A8 10 nM, S100A9 10 nM, alone or combined, at least three independent experiments in quadruplicate
Description: BxPC3, Capan1, MiaPaCa2, Panc1 and BxPC3-SMAD4+ cells were seeded (2000 cells per well) in 96-well cell culture plates and cultured in complete media for 24 hours. Media were then replaced with fresh cell culture media in absence (control) or in presence of TGFβ1 (0.02 ng/ml) and NT-S100A8 (50 nM), alone or combined or in absence (control) or in presence of TGFβ1 (0.02 ng/ml), S100A8 (10 nM) and S100A9 (10 nM) alone or combined. Cell growth was assessed after 48 hours using the XTT cell viability test (Roche, Milano, Italy). At least three independent experiements, each made in quadruplicate, were run. The results were expressed as percentage with respect to the median Abs450nm of control cells run in the same experimental set.

TGFβ1 = target: T1, TGFβ1 (Homo sapiens, UniProt P01137); assay: Molecular interactions by MALDI-TOF/MS and co-immunoprecipitation; format: binding; conditions: for co-immunoprecipitation with TGFβ1: 1.6 μM equimolar with CaCl2, 37°C overnight, IP anti-S100A8 or anti-S100A9, WB TGFβ1; for homo-oligomer formation: 11.3 μM with Ca2+; for homo-oligomer formation / hetero-dimer formation with TGFβ1: overnight, MALDI-TOF/MS; for hetero-dimer formation with TGFβ1: 1:1 molar ratio (11.3 μM) with Ca2+
T1 construct: purchased ProSpec-Tany TechnoGene
T1 sequence (P01137 279-390 limits assumed): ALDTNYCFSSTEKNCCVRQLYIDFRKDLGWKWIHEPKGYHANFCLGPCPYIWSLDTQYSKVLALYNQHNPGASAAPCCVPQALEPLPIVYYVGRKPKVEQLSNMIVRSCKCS
Description: Co-immunoprecipitation experiments were performed using protein G-Sepharose (GE Healthcare Technologies). TGFβ1 (1.6 μM) was incubated in equimolar concentrations with S100A8 or S100A9 at 37°C overnight in the presence of equimolar CaCl2. The mixtures were then incubated for 2 h with anti-S100A8 polyclonal or anti-S100A9 monoclonal antibodies (Santa Cruz Biotechnology) preadsorbed to protein G. Immunoprecipitates, washed three times in 10 mM Tris HCl containing 40 mM NaCl, pH 7.5, were boiled in an SDS-PAGE sample buffer before electrophoresis on 4–12% NuPAGE®NovexBis-Tris SDS–PAGE gels. After protein transfer, nitrocellulose membranes were blotted with anti-TGFβ1 antibody (Cell Signaling Technology).
S100A8, S100A9 and TGFβ1 and calcium ions (CaCl2) were mixed at an equimolar concentration (11.3 μM) in an aqueous solution. Each mixture was incubated overnight at 37°C prior to MALDI-TOF/MS analysis. S100A8, S100A9 and TGFβ1 mixtures were diluted 1/10 in 50 μL of 0.1% TFA aqueous solution, after which 5 microliters of each dilution were added to 5 μl of Sinapinic acid (SA); 1 μl of the resulting mixture was deposited in duplicate on the steel sample holder and allowed to dry. External mass calibration (Protein Calibration Standard II, BrukerDaltonics) was based on monoisotopic values of [M + H] + of Trypsinogen, Protein A, Albumin-Bovine (BSA), at m/z 23982, 44613, 66500, respectively. MALDI-TOF/MS measurements were performed using an Ultraflex II MALDI-TOF instrument (BrukerDaltonics), operating in linear positive ion mode. Ions were formed using a pulsed UV laser (λ = 337 nm) beam. The instrumental conditions were: IS1 = 25 kV; IS2 = 23.35 kV; delay time = 70 nsec. All chemicals and solvents were purchased from Sigma-Aldrich (Sigma Aldrich). One spectrum was collected for each sample, an average of 1,000 laser shots being obtained from the respective two replicate spots.

| Substance | N-Cadherin membranous immunostaining (BxPC3 N-Cadherin) | [Ca2+]i variation per minute per cell (MiaPaCa2 [Ca2+]i) | Panc1 % to Control Mean± SEM (Panc1) | effect on the [Ca2+]i decrement induced by TGFβ1 (MiaPaCa2 [Ca2+]i) | co-immunoprecipitation with TGFβ1 (TGFβ1) | homo-oligomer formation (TGFβ1) | hetero-dimer formation with TGFβ1 (TGFβ1) |
| --- | --- | --- | --- | --- | --- | --- | --- |
| NT-S100A8: 14 N-terminal aminoacid peptide of S100A8, isolated from PDAC tissues (MLTELEKALNSIID; UniProt P05109 1-14, looked up, fragment) | less marked than in control cells | significant decrement of [Ca^2+]i | – | – | – | – | – |
| S100A8: inflammatory calcium binding protein S100A8 (ProSpec-Tany TechnoGene) | less marked than in control cells | significant decrement of [Ca^2+]i | 93.16 ± 3.65 % to Control | partly counteracted | TGFβ1 was detected | formed homo-dimers | formed hetero-dimers not only between themselves, but also with TGFβ1 |
| S100A9: inflammatory calcium binding protein S100A9, S100A8 binding partner | less marked than in control cells | – | 96.72± 4.43 % to Control | completely reverted | TGFβ1 was detected | formed homo-dimers and homo-trimers | formed hetero-dimers not only between themselves, but also with TGFβ1 |
| TGFβ1: transforming growth factor beta 1 (ProSpec-Tany TechnoGene) | less marked than in control cells | significant decrement of [Ca^2+]i | 88.31 ± 3.68 % to Control | – | – | formed homo-dimers and homo-trimers | – |
